Results: US10226467B2, “Compounds for the treatment of myotonic dystrophy” (UNIVERSITAT DE VALÈNCIA, priority 2014, dated 2019)

Columns and labels:
MBNL1 in DM1 myoblasts = test: Quantification of Mbl expression or localization (anti-MBNL1 immunodetection); type: cell-based, human; conditions: FIG. 6, at 1 microM, one day, versus DMSO
Description: Immortalized transdifferentiated DM1 fibroblasts were seeded in a […] (8000 cell/per well) in standard media. To achieve the differentiation of the fibroblast to myoblasts, we induced MyoD expression by changing the standard media to differentiation media with Doxocycline and without serum. 24 h after induction, the compounds were added the cells at different concentrations, always maintaining the concentration of the solvent (DMSO) at 1% in the media. Every concentration of compound was tested in three different wells. 24 h after adding the compounds the cells were fixed with paraformaldehyde 4% in PBS and Mbl detection using monoclonal anti-MBNL1 antibody was performed counterstaining with Hoechst to detect the nuclei. Incell 200 plate reader confocal was used for detection and quantification of the parameters selected and the data was analyzed using Graphpad software for statistical comparison of results.

[1] = tested on: ribonuclear foci in DM1 fibroblasts; test: Ribonuclear foci per cell (in situ hybridization of CUG repeat RNA); type: cell-based, human; conditions: FIG. 4, versus DMSO
Description: Its reduction is typically used as evidence of desired activity against myotonic dystrophy in cell culture models because MBNL proteins are sequestered in ribonuclear foci. Since MBNL proteins are limiting in myotonic dystrophies an increase in free MBNLs is expected to be therapeutic. • Evidences from Human Myoblasts:
Cell model of the disease (provided by the D. Furling's laboratory, Institute of Myologie, Paris) consisted of normal and DM1 (1300 CTG repeats) immortalized (hTERT) skin fibroblasts expressing conditional MyoD. Fibroblast cells were grown in Dulbecco's Modified Eagle Medium (DMEM) with 4.5 g/L of glucose, 1% of penicillin and streptomycin (P/S) and 10% foetal bovine serum (FBS) (Sigma). Fibroblasts were transdifferentiated in myoblasts by inducing expression of MyoD. […]
In situ hybridization with CUG repeat RNA. […] Images were taken using a Leica DM2500 fluorescence microscope and foci were manually counted from at least 50 cells per compound.
DM1 fibroblasts were seeded in a […] (8000 cell/per well) in standard media one day before adding the compounds to the media. […] Incell 200 plate reader confocal was used for detection and quantification of the parameters selected and the data was analyzed using Graphpad software for statistical comparison of results.

[2] = tested on: 6-FAM-(CUG)23 probe (CUG repeats RNA); test: Fluorescence polarization assay of binding to CUG repeat RNA; conditions: FIG. 2; increasing concentrations; compared to a control compound that does not bind CUG repeats
Description: This was assessed in fluorescence polarization spectroscopy experiments. In these tests, when polarized light excites a fluorophore conjugated to a small molecule, it undergoes rotational diffusion faster than the time required for light emission occurs, resulting in a random arrangement of the molecule in the fluorescence emission time (depolarization). However, the rotation of the molecule becomes slower depending on the viscosity of the medium or the molecular volume, increasing the polarization of the emitted light. Thus, by measuring changes in polarization of an RNA with 23 CUG repeats conjugated to the fluorophore carboxyfluorescein, FAM (CUG) 23, we can consider whether a candidate molecule binds to the RNA.
Fluorescent CUG RNA (carboxyfluorescein (6-FAM)-labeled) was incubated with increasing concentrations of example compounds. […]
Carboxyfluorescein-labeled CUG RNA (6-FAM-CUG23) at 6 nM was incubated with the compounds at different concentrations in binding buffer (50 mM Tris-HCl pH 7.0, 250 mM NaCl, 50 μM ZnCl2, 10% glycerol, 1 mM DTT) on ice for 20 min in the dark. Polarization was measured in an EnVision® Multilabel Reader using as excitation filter FP480 and as emission filter FP535.

[3] = tested on: 6-FAM-(CUG)23 probe (CUG repeats RNA); conditions: positive control, Warf et al. 2009; cited from earlier work

| SMILES | Mbl staining intensity in nuclei (MBNL1 in DM1 myoblasts) | also measured |
| --- | --- | --- |
| Cn1c(=O)[nH]c2ncn(C)c2c1=O [Compound 6, 1,7-Dimethylxanthine] | increase significantly |  |
| CC(C)Cn1c(=O)n(C)c(=O)c2[nH]cnc21 [Compound 7, 3-Isobutyl-1-methylxanthine] | increase significantly |  |
| Cn1c(=O)[nH]c(=O)c2[nH]cnc21 [Compound 8, 3-Methylxanthine] | increase significantly |  |
| CCCn1c(=O)c2[nH]cnc2n(CC)c1=O [Compound 9, 3-Ethyl-1-propylxanthine] | increase significantly |  |
| Cn1c(=O)c2c(ncn2CCCCCCCn2cnc3c2c(=O)n(C)c(=O)n3C)n(C)c1=O [Theophylline-C7] |  | mean number of ribonuclear foci per cell [1]: significantly decreased |
| Cn1c(=O)c2c(ncn2CCCCCCCCCn2cnc3c2c(=O)n(C)c(=O)n3C)n(C)c1=O [Theophylline-C9] |  | binding to CUG repeats (polarization of 6-FAM-(CUG)23 probe relative to probe alone) [2]: very strong bond; mean number of ribonuclear foci per cell [1]: significantly decreased |
| N=C(N)c1ccc(OCCCCCOc2ccc(C(=N)N)cc2)cc1 [pentamidine] |  | binding to CUG repeats (previously shown) [3]: attached to the CUG repeats |
